In patent US10914725B2, “Culture medium additive, culture medium composition, and method for culturing cells or tissue using same” (NISSAN CHEMICAL INDUSTRIES, LTD., priority 2015, dated 2021):
pIC50: −log10 of the molar value.

Experiments:
[1] = system: adenocarcinomic human alveolar basal epithelial cell line A549; test: High content analysis of anticancer agents by cell image analysis (Experimental Example 8); assay type: cell-based; conditions: for pIC50: Homo sapiens; for average cell number per sphere / average dead cell number in sphere / average sphere number per 20 mm^2 / projected area: 0.03 (w/v)% low-molecular agar medium, 7 days with agent;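 for projected area: Projected area in square micrometres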
Description: Adenocarcinomic human alveolar basal epithelial cell line A549 (manufactured by DS PHARMA BIOMEDICAL CO., LTD.) was suspended in the above-mentioned medium composition containing low-molecular agar at 11,000 cells/mL. […] The plate was stood in a CO2 incubator (37° C., 5% CO2) overnight. The next day, paclitaxel (manufactured by Wako Pure Chemical Industries, Ltd.) and trametinib (manufactured by SANTA CRUZ) were further added by 10 μl per 1 well at a final concentration of 0.001 μM, 0.01 μM and 0.1 μM, respectively, mitomycin C (manufactured by Wako Pure Chemical Industries, Ltd.) at a final concentration of 0.005 μM, 0.05 μM and 0.5 μM, and MK2206 (manufactured by SANTA CRUZ) at a final concentration of 0.001 μM, 0.01 μM, 0.1 μM and 1 μM. Successively, the plate was further cultured in a standing state in a CO2 incubator (37° C., 5% CO2) for 7 days.
Successively, a solution of 20 μg/mL Propidium Iodide (manufactured by BIOMOL) in DMEM (phenol red, L-glutamine free) (manufactured by Wako Pure Chemical Industries, Ltd.) was prepared and added at 10 μL per 1 well, and the culture medium was suspended. The plate was centrifuged at 1,500 rpm for 1 min, and high content analysis was performed by cell image analysis using a cell imaging apparatus (“ArrayScan VTI HCS Reader”, manufactured by Thermo Fisher Scientific). At that time, observation was performed with 20 fields of view per well using a ×10 objective lens, cell outline and cell nucleus were detected from Hoechst33342 fluorescence image, and dead cells were detected from propidium iodide fluorescence image. In addition, 50% inhibitory concentration (nM) of each anticancer agent by high content analysis was calculated from the number of spheres constituted of not less than 5 cells. In this case, the value without addition of the anticancer agent was taken as 0% sphere formation inhibitory rate.

[2] = system: adenocarcinomic human alveolar basal epithelial cell line A549; test: CellTiter-Glo cell survival assay of anticancer agents (Experimental Example 8); assay type: cell-based; conditions: for pIC50: Homo sapiens, A549, cell survival assay by luminescence, read-out: 50% inhibitory concentration
Description: Adenocarcinomic human alveolar basal epithelial cell line A549 (manufactured by DS PHARMA BIOMEDICAL CO., LTD.) was suspended in the above-mentioned medium composition containing low-molecular agar at 11,000 cells/mL. The above-mentioned cell suspension was dispensed to the wells of a 96 well flat bottom ultra-low attachment surface microplate (manufactured by Corning Incorporated, #3474) at 90 μL per 1 well. The plate was stood in a CO2 incubator (37° C., 5% CO2) overnight. […] Successively, the plate was further cultured in a standing state in a CO2 incubator (37° C., 5% CO2) for 7 days. As a negative control, a medium composition containing 10 (v/v) % FBS alone in DMEM (manufactured by Wako Pure Chemical Industries, Ltd.) was prepared. […] A549 cells were also suspended in each of the negative control and comparison control medium compositions, the negative control was dispensed to a 96 well flat bottom attachment surface microplate (manufactured by Corning Incorporated, #3585) and the comparison control was dispensed to a 96 well flat bottom ultra-low attachment surface microplate (manufactured by Corning Incorporated, #3474). […] CellTiter-Glo Luminescent Cell Viability Assay (manufactured by Promega) (100 μL) was added to the low-molecular agar-containing culture medium and each cell culture medium of the negative control and comparison control, the mixture was stood for 10 min at room temperature, and the amount of luminescence was measured by a microplate reader (“FlexStation 3”, manufactured by Molecular Devices) and according to the protocol recommended by Promega. The amount of luminescence of the medium alone was subtracted, whereby the number of viable cells was measured.

[3] = comparison control (0.015 (w/v)% deacylated gellan gum medium)
[4] = low-molecular agar-containing medium
[5] = negative control (DMEM, 10% FBS, attachment surface plate)

NC1(c2ccc(-c3nc4ccn5c(=O)[nH]nc5c4cc3-c3ccccc3)cc2)CCC1 [MK2206]
pIC50 ([1]; A549, high content analysis by cell image analysis, number of spheres of not less than 5 cells, low-molecular agar-containing medium, read-out: 50% inhibitory concentration): 6.68 | average cell number per sphere ([1]; agent 0.001 μM): 5.044 | average dead cell number in sphere ([1]; agent 0.001 μM): 0.104 | average sphere number per 20 mm^2 ([1]; agent 0.001 μM): 230.6 | projected area ([1]; agent 0.001 μM): 1361 μm^2 | average cell number per sphere ([1]; agent 0.01 μM): 4.774 | average dead cell number in sphere ([1]; agent 0.01 μM): 0.074 | average sphere number per 20 mm^2 ([1]; agent 0.01 μM): 213.7 | projected area ([1]; agent 0.01 μM): 1343 μm^2 | average cell number per sphere ([1]; agent 0.1 μM): 4.323 | average dead cell number in sphere ([1]; agent 0.1 μM): 0.076 | average sphere number per 20 mm^2 ([1]; agent 0.1 μM): 206.1 | projected area ([1]; agent 0.1 μM): 1199 μm^2 | average cell number per sphere ([1]; agent 1 μM): 3.423 | average dead cell number in sphere ([1]; agent 1 μM): 0.332 | average sphere number per 20 mm^2 ([1]; agent 1 μM): 142.3 | projected area ([1]; agent 1 μM): 931.2 μm^2 | pIC50 [2, 3]: 6.68 | pIC50 [2, 4]: 6.60 | pIC50 [2, 5]: ≤ 6.00 | relative cell number (no anticancer agent = 100) ([2]; agent 0.001 μM, comparison control (0.015 (w/v)% deacylated gellan gum medium)): 95.8 | relative cell number (no anticancer agent = 100) ([2]; agent 0.001 μM, low-molecular agar-containing medium): 100.1 | relative cell number (no anticancer agent = 100) ([2]; agent 0.001 μM, negative control (DMEM, 10% FBS, attachment surface plate)): 100.2 | relative cell number (no anticancer agent = 100) ([2]; agent 0.01 μM, comparison control (0.015 (w/v)% deacylated gellan gum medium)): 89.1 | relative cell number (no anticancer agent = 100) ([2]; agent 0.01 μM, low-molecular agar-containing medium): 93.9 | relative cell number (no anticancer agent = 100) ([2]; agent 0.01 μM, negative control (DMEM, 10% FBS, attachment surface plate)): 101.3 | relative cell number (no anticancer agent = 100) ([2]; agent 0.1 μM, comparison control (0.015 (w/v)% deacylated gellan gum medium)): 61.8 | relative cell number (no anticancer agent = 100) ([2]; agent 0.1 μM, low-molecular agar-containing medium): 66.5 | relative cell number (no anticancer agent = 100) ([2]; agent 0.1 μM, negative control (DMEM, 10% FBS, attachment surface plate)): 97.6 | relative cell number (no anticancer agent = 100) ([2]; agent 1 μM, comparison control (0.015 (w/v)% deacylated gellan gum medium)): 25.2 | relative cell number (no anticancer agent = 100) ([2]; agent 1 μM, low-molecular agar-containing medium): 25.7 | relative cell number (no anticancer agent = 100) ([2]; agent 1 μM, negative control (DMEM, 10% FBS, attachment surface plate)): 95.7

CO[C@@]12[C@H](COC(N)=O)C3=C(C(=O)C(C)=C(N)C3=O)N1C[C@@H]1N[C@@H]12 [mitomycin C]
pIC50 ([1]; A549, read-out: 50% inhibitory concentration): 8.19 | average cell number per sphere ([1]; agent 0.005 μM): 3.72 | average dead cell number in sphere ([1]; agent 0.005 μM): 0.151 | average sphere number per 20 mm^2 ([1]; agent 0.005 μM): 265.2 | projected area ([1]; agent 0.005 μM): 1139 μm^2 | average cell number per sphere ([1]; agent 0.05 μM): 2.187 | average dead cell number in sphere ([1]; agent 0.05 μM): 0.33 | average sphere number per 20 mm^2 ([1]; agent 0.05 μM): 190.6 | projected area ([1]; agent 0.05 μM): 810.7 μm^2 | average cell number per sphere ([1]; agent 0.5 μM): 1.447 | average dead cell number in sphere ([1]; agent 0.5 μM): 0.606 | average sphere number per 20 mm^2 ([1]; agent 0.5 μM): 113.3 | projected area ([1]; agent 0.5 μM): 460.8 μm^2 | pIC50 [2, 3]: 7.92 | pIC50 [2, 4]: 8.00 | pIC50 [2, 5]: 7.15 | relative cell number (no anticancer agent = 100) ([2]; agent 0.005 μM, comparison control (0.015 (w/v)% deacylated gellan gum medium)): 62.8 | relative cell number (no anticancer agent = 100) ([2]; agent 0.005 μM, low-molecular agar-containing medium): 59.5 | relative cell number (no anticancer agent = 100) ([2]; agent 0.005 μM, negative control (DMEM, 10% FBS, attachment surface plate)): 94 | relative cell number (no anticancer agent = 100) ([2]; agent 0.05 μM, comparison control (0.015 (w/v)% deacylated gellan gum medium)): 29.5 | relative cell number (no anticancer agent = 100) ([2]; agent 0.05 μM, low-molecular agar-containing medium): 27.8 | relative cell number (no anticancer agent = 100) ([2]; agent 0.05 μM, negative control (DMEM, 10% FBS, attachment surface plate)): 55.9 | relative cell number (no anticancer agent = 100) ([2]; agent 0.5 μM, comparison control (0.015 (w/v)% deacylated gellan gum medium)): 8.6 | relative cell number (no anticancer agent = 100) ([2]; agent 0.5 μM, low-molecular agar-containing medium): 8.1 | relative cell number (no anticancer agent = 100) ([2]; agent 0.5 μM, negative control (DMEM, 10% FBS, attachment surface plate)): 12.3
